Laboratory results from PubChem BioAssay AID192 (DTP/NCI, 2004).
Values joined by “and” are separate entries in the source; they are usually repeats but may differ in a detail not shown here. Identical values can stand only once. Toxic doses and inconclusive results are not listed. How the source made its calls: active means survival T/C of 150% or more; inactive means T/C below 125% in these data.

Tested on: BDF1 mice, B16 melanoma ip, median survival T/C
Assay: NCI In Vivo Anticancer Drug Screen. Data for tumor model B16 Melanoma (intraperitoneal) in B6D2F1 (BDF1) mice
Conditions: endpoint: median survival time, higher = longer survival
Procedure, shortened: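 Transplantable tumor model; survival or tumor size measured; reported as T/C, treated over vehicle control.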

[1] = dose: 100.0 mg/kg/injection, schedule: Q01DX009 (ip), vehicle: saline
[2] = dose: 200.0 mg/kg/injection, schedule: Q01DX009 (ip), vehicle: saline
[3] = dose: 400.0 mg/kg/injection, schedule: Q01DX009 (ip), vehicle: saline
[4] = dose: 50.0 mg/kg/injection, schedule: Q01DX009 (ip), vehicle: Klucel (hydroxypropylcellulose) (HPC)
[5] = dose: 100.0 mg/kg/injection, schedule: Q01DX009 (ip), vehicle: Klucel (hydroxypropylcellulose) (HPC)
[6] = dose: 25.0 mg/kg/injection, schedule: Q01DX009 (ip), vehicle: saline with Tween-80
[7] = dose: 50.0 mg/kg/injection, schedule: Q01DX009 (ip), vehicle: saline with Tween-80
[8] = dose: 100.0 mg/kg/injection, schedule: Q04DX003 (ip), vehicle: saline
[9] = dose: 200.0 mg/kg/injection, schedule: Q04DX003 (ip), vehicle: saline
[10] = dose: 400.0 mg/kg/injection, schedule: Q04DX003 (ip), vehicle: saline
[11] = dose: 25.0 mg/kg/injection, schedule: Q01DX009 (ip), vehicle: saline
[12] = dose: 100.0 mg/kg/injection, schedule: Q01DX009 (ip), vehicle: saline with Tween-80
[13] = dose: 200.0 mg/kg/injection, schedule: Q01DX009 (ip), vehicle: saline with Tween-80
[14] = dose: 200.0 mg/kg/injection, schedule: Q01DX009 (ip), vehicle: Klucel (hydroxypropylcellulose) (HPC)

Measured: T/C

COc1cc(C(=O)NCCS(=O)(=O)O)cc(OC)c1OC
inactive: [1] 97 % of control | [2] 111 % of control | [3] 103 % of control

O=c1oc(-c2cccc([N+](=O)[O-])c2)nc2ccccc12
inactive: [4] 106 % of control | [5] 86 % of control

O=[N+]([O-])c1cc(Cl)c(Cl)cc1NS(=O)(=O)c1ccccc1
inactive: dose: 150.0 mg/kg/injection, schedule: Q01DX009 (ip), vehicle: saline with Tween-80 100 % of control | dose: 300.0 mg/kg/injection, schedule: Q01DX009 (ip), vehicle: saline with Tween-80 90 % of control

Cc1cc(C(C)(CC(C)C)c2ccc(O)c(C)c2)ccc1O
inactive: [6] 107 % of control | [7] 94 % of control

c1ccc2cc3c(ccc4ccccc43)cc2c1
inactive: dose: 50.0 mg/kg/injection, schedule: Q01DX009 (ip), vehicle: distilled water + Tween-80 109 % of control | dose: 100.0 mg/kg/injection, schedule: Q01DX009 (ip), vehicle: distilled water + Tween-80 103 % of control | dose: 200.0 mg/kg/injection, schedule: Q01DX009 (ip), vehicle: distilled water + Tween-80 100 % of control

Cn1c(CC#N)c(C[N+](C)(C)C)c2ccccc21
inactive: dose: 1.25 mg/kg/injection, schedule: Q01DX009 (ip), vehicle: saline with Tween-80 104 % of control | dose: 2.5 mg/kg/injection, schedule: Q01DX009 (ip), vehicle: saline with Tween-80 86 % of control | dose: 5.0 mg/kg/injection, schedule: Q01DX009 (ip), vehicle: saline with Tween-80 100 % of control

CC1NC(=O)COC1c1ccccc1 (configuration not stated)
inactive: dose: 12.5 mg/kg/injection, schedule: Q01DX009 (ip), vehicle: Klucel (hydroxypropylcellulose) (HPC) 95 % of control | dose: 12.5 mg/kg/injection, schedule: Q04DX003 (ip), vehicle: saline 95 % of control | dose: 25.0 mg/kg/injection, schedule: Q01DX009 (ip), vehicle: Klucel (hydroxypropylcellulose) (HPC) 95 % of control | dose: 25.0 mg/kg/injection, schedule: Q04DX003 (ip), vehicle: saline 92 % of control | [4] 102 % of control | dose: 50.0 mg/kg/injection, schedule: Q04DX003 (ip), vehicle: saline 97 % of control | [5] 97 % of control | [8] 95 % of control | [9] 97 % of control

C=C(C)[C@]12CC(C)C34OC(/C=C\C=C\CCCCCCCCC)(O[C@@H]1[C@@H]3[C@@H]1O[C@]1(CO)[C@@H](O)[C@]1(O)C(=O)C(C)=C[C@@H]41)O2 (some centres not stated)
inactive: dose: 0.09 mg/kg/injection, schedule: Q01DX009 (ip), vehicle: alcohol 88 % of control | dose: 0.18 mg/kg/injection, schedule: Q01DX009 (ip), vehicle: saline + alcohol 98 % of control | dose: 0.19 mg/kg/injection, schedule: Q01DX009 (ip), vehicle: alcohol 88 % of control | dose: 0.37 mg/kg/injection, schedule: Q01DX009 (ip), vehicle: saline + alcohol 89 % of control

COC(=O)c1ccc(C(=O)OC)[n+]([O-])c1
inactive: [8] 105 % of control | [9] 112 % of control | [10] 105 % of control

CCCC(Cc1ccccc1)N1CCCC1 (configuration not stated)
inactive: dose: 1.56 mg/kg/injection, schedule: Q01DX009 (ip), vehicle: saline 105 % of control | dose: 3.12 mg/kg/injection, schedule: Q01DX009 (ip), vehicle: saline 100 % of control | dose: 6.25 mg/kg/injection, schedule: Q01DX009 (ip), vehicle: saline 92 % of control | dose: 12.5 mg/kg/injection, schedule: Q01DX009 (ip), vehicle: saline 115 % of control | [11] 102 % of control

CCCCN1CCNCC1
inactive: [11] 103 % of control | dose: 50.0 mg/kg/injection, schedule: Q01DX009 (ip), vehicle: saline 103 % of control | [1] 101 % of control

CCOc1cc([N+](=O)[O-])c(OCC)cc1Cl
inactive: [12] 94 % of control | [13] 97 % of control | dose: 400.0 mg/kg/injection, schedule: Q01DX009 (ip), vehicle: saline with Tween-80 96 % of control

Cc1ccc(CNc2cccc([N+](=O)[O-])c2)cc1
inactive: [5] 100 % of control | [14] 97 % of control

Cc1cc2nc(CO)[nH]c2cc1C
inactive: [5] 111 % of control | dose: 100.0 mg/kg/injection, schedule: Q04DX003 (ip), vehicle: Klucel (hydroxypropylcellulose) (HPC) 100 % of control | dose: 200.0 mg/kg/injection, schedule: Q04DX003 (ip), vehicle: Klucel (hydroxypropylcellulose) (HPC) 94 % of control | dose: 400.0 mg/kg/injection, schedule: Q04DX003 (ip), vehicle: Klucel (hydroxypropylcellulose) (HPC) 97 % of control

O=C1C(N2CCN(CCO)CC2)=C(N2CC2)C(=O)C(N2CCN(CCO)CC2)=C1N1CC1
inactive: dose: 0.25 mg/kg/injection, schedule: Q01DX009 (ip), vehicle: saline 122 % of control | dose: 0.5 mg/kg/injection, schedule: Q01DX009 (ip), vehicle: saline 122 % of control | dose: 1.0 mg/kg/injection, schedule: Q01DX009 (ip), vehicle: saline 109 % of control

CCCCc1c(OC)cc(O)c2c1C(=O)c1[nH]c(C(=O)O)c(O)c(=O)c1C2=O
inactive: dose: 7.5 mg/kg/injection, schedule: Q01DX009 (ip), vehicle: Klucel (hydroxypropylcellulose) (HPC) 96 % of control | dose: 15.0 mg/kg/injection, schedule: Q01DX009 (ip), vehicle: Klucel (hydroxypropylcellulose) (HPC) 96 % of control

O=[N+]([O-])c1cccc(N=Cc2ccccc2)c1
inactive: dose: 66.0 mg/kg/injection, schedule: Q01DX009 (ip), vehicle: Klucel (hydroxypropylcellulose) (HPC) 102 % of control | dose: 150.0 mg/kg/injection, schedule: Q01DX009 (ip), vehicle: Klucel (hydroxypropylcellulose) (HPC) 122 % of control

CCC[CH2][Sn]1([CH2]CCC)[O]C2C(CO)OC(n3ccc(N)nc3=O)C2[O]1 (configuration not stated)
inactive: dose: 0.78 mg/kg/injection, schedule: Q01DX009 (ip), vehicle: Klucel (hydroxypropylcellulose) (HPC) 99 % of control | dose: 1.56 mg/kg/injection, schedule: Q01DX009 (ip), vehicle: Klucel (hydroxypropylcellulose) (HPC) 123 % of control | dose: 3.12 mg/kg/injection, schedule: Q01DX009 (ip), vehicle: Klucel (hydroxypropylcellulose) (HPC) 116 % of control | dose: 6.25 mg/kg/injection, schedule: Q01DX009 (ip), vehicle: Klucel (hydroxypropylcellulose) (HPC) 104 % of control and 124 % of control

Cc1cccc(NC(=O)Nc2ccccc2)c1C
inactive: [5] 100 % of control

O=[N+]([O-])c1cccc(P(=O)(c2cccc([N+](=O)[O-])c2)c2cccc([N+](=O)[O-])c2)c1
inactive: [1] 105 % of control | [8] 94 % of control | [2] 100 % of control | [9] 100 % of control | [3] 107 % of control | [10] 100 % of control

CCC(C)NC(=O)Nc1cccc(Cl)c1C (configuration not stated)
inactive: [12] 102 % of control | [13] 96 % of control

Nc1ccc(S(=O)(=O)N/N=C/c2ccccc2Cl)cc1
inactive: dose: 12.5 mg/kg/injection, schedule: Q01DX009 (ip), vehicle: saline with Tween-80 107 % of control | [6] 102 % of control | [7] 107 % of control

Cc1cc(Cl)ccc1NC(=O)c1cccc(C(=O)Nc2ccc(Cl)cc2C)c1
inactive: [5] 100 % of control | [14] 100 % of control | dose: 400.0 mg/kg/injection, schedule: Q01DX009 (ip), vehicle: Klucel (hydroxypropylcellulose) (HPC) 96 % of control

CC(CCC(=O)O)(c1cc(Cl)c(O)c(Cl)c1)c1cc(Cl)c(O)c(Cl)c1
inactive: dose: 25.0 mg/kg/injection, schedule: Q01DX009 (ip), vehicle: gum acacia 98 % of control | dose: 50.0 mg/kg/injection, schedule: Q01DX009 (ip), vehicle: gum acacia 115 % of control | dose: 100.0 mg/kg/injection, schedule: Q01DX009 (ip), vehicle: gum acacia 122 % of control
